One data set relates to Vero. The experiment in a line: cells. The note with it: Chlorocebus sabaeus, 48 h.

The values below come from ChEMBL document CHEMBL1287680, “C-11 diamino cryptolepine derivatives NSC748392, NSC748393, and NSC748394: anticancer profile and G-quadruplex stabilization” (Bioorg Med Chem Lett, 2010).

Description for Vero: Cytotoxicity against african green monkey Vero cells after 48 hrs by MTT assay
Description for physchem: Dissociation constant, pKa of the compound by UV-visible spectroscopy

As to `C[n+]1c2ccccc2c(Nc2cccnc2)c2[nH]c3ccccc3c21`, the IC50 (commonly the concentration that gives 50% inhibition) in the data set with Vero stood at 2600 nM. In addition, the pKa (commonly the pH at which an ionisable group is half protonated) in “physchem” is 10.3.

For the compound `CN(C)CCNc1c2ccccc2[n+](C)c2c1[nH]c1ccccc12`, in the data set with Vero, the IC50 is 5500 nM. In the data set “physchem”, the pKa amounted to 11.6. Consider `C[n+]1c2ccccc2c(NC2CCN(Cc3ccccc3)CC2)c2[nH]c3ccccc3c21`, for which the IC50 in the data set on Vero amounted to 2200 nM. This compound also had a pKa in “physchem” of 11.5.

As to `CN(C)CC(C)(C)CNc1c2ccccc2[n+](C)c2c1[nH]c1ccccc12`, in the data set with Vero, the IC50 was 3000 nM. The same compound gave a pKa in “physchem” of 11.7. For `CC(C)CN1CCC(Nc2c3ccccc3[n+](C)c3c2[nH]c2ccccc23)CC1`, the 50% inhibitory concentration (IC50) in the data set on Vero stood at 5000 nM. The compound also registered a pKa in the data set “physchem” of 11.6. The matching figures for `C[n+]1c2ccccc2c(Nc2ccccc2)c2[nH]c3ccccc3c21`: 600 nM and 10.6. `CCN(CC)CCNc1c2ccccc2[n+](C)c2c1[nH]c1ccccc12` came in with an IC50 in the data set with Vero of 2800 nM. Besides, the pKa in the data set “physchem” came to 11.6. In turn, `C[n+]1c2cc(Cl)ccc2c(NC2CCNCC2)c2[nH]c3cc(Cl)ccc3c21` showed a half-maximal inhibitory concentration (IC50) in the data set on Vero of 800 nM. Besides, the pKa in “physchem” amounted to 10.3. The matching figures for `CC(CN(C)C)Nc1c2ccccc2[n+](C)c2c1[nH]c1ccccc12` (configuration not stated): 3000 nM and 11.6. On the same counts, the results for `CCN(CC)CCCC(C)Nc1c2ccccc2[n+](C)c2c1[nH]c1ccccc12` (configuration not stated) are 13000 nM and 11.4. For the compound `CCN(CC)CCCNc1c2ccccc2[n+](C)c2c1[nH]c1ccccc12`, the IC50 in the data set with Vero was 2500 nM. Moreover, the pKa in the data set “physchem” turned out to be 11.6. As for `CN(C)CCCNc1c2ccccc2[n+](C)c2c1[nH]c1ccccc12`, the half-inhibitory concentration (IC50) with Vero came out at 2200 nM. The same compound gave a pKa in the data set “physchem” of 11.9. Take `C[n+]1c2ccccc2c(NC2CCN(Cc3ccccc3O)CC2)c2[nH]c3ccccc3c21`: the midpoint of inhibition with Vero, the IC50, lay at 2600 nM. The compound further came in with a pKa in the data set “physchem” of 11.6.

`CCN(CC)Cc1ccc(Nc2c3ccccc3[n+](C)c3c2[nH]c2ccccc23)cc1O`: the IC50 in the data set with Vero stood at 800 nM. In the data set “physchem”, this compound had a pKa of 10.8. On to `CC(C)NCCCNc1c2ccccc2[n+](C)c2c1[nH]c1ccccc12`, for which the midpoint of inhibition with Vero, the IC50, lay at 3000 nM. The pKa in “physchem” is 11.5. In turn, `C[n+]1c2cc(Cl)ccc2c(NC2CCNCC2)c2[nH]c3ccccc3c21` yielded an IC50 with Vero of 4400 nM. The pKa in “physchem” worked out at 11.1. The matching figures for `C[n+]1c2ccccc2c(NCCCN2CCCCC2)c2[nH]c3ccccc3c21`: 2000 nM and 11.7.

On to `CCN(CC)CCCNc1c2ccc(Cl)cc2[n+](C)c2c1[nH]c1ccccc12`, for which the IC50 with Vero turned out to be 1300 nM. In “physchem”, this compound yielded a pKa of 11.2. Turning to `CCN(CC)c1c2ccccc2[n+](C)c2c1[nH]c1ccccc12`, in the data set on Vero, the 50% inhibitory concentration (IC50) came to 3000 nM.
